Patent publication EP0485890A2, “Use of 2,3-disubstituate 1-azolyl-propane for inhibiting the pathogenic growth phase of dimorph yeast cell” (HOECHST AKTIENGESELLSCHAFT, priority 1990, dated 1992)
Converted amounts (≈) assume the structure as drawn.

Tests used:
[1] = tested on: Lysophospholipase (Phospholipase B); test: In vitro enzyme test: inhibition of released exoenzymes (phospholipase) of Candida albicans blastoconidia on egg-yolk agar; assay type: cell-based; settings: Candida albicans Stamm 200/175
Description: Als Beispiel für die Hemmung der pathogenen Phase dimorpher Hefezellen werden Ergebnisse eines in-vitro-Enzymtests angeführt, in welchen die prozentuale Hemmung freigesetzter Exoenzyme, insbesondere freigesetzter Lysophospholipase (Phospholipase B), als Maß für die Wirksamkeit bestimmt wird.
Zur Feststellung der Enzymhemmung wurde eine Suspension von Candida albicans Blastokonidien (Stamm 200/175), wobei die Keimdichte photometrisch auf eine Extinktion von 0,5 (500 nm) eingestellt war, mit Präparatelösung bzw. zur Kontrolle mit Lösungsmittellösung vermischt und zwar • a) 100 ul Präparatelösung (Suspension) • + 900 µl Keimsuspension • b) 100 µl Lösungsmittel • + 900 µl Keimsuspension • Jeweils 5 µl der 30 min bei 21 ° C inkubierten Blastokonidiensuspension wurden auf eine Agarplatte (Sabourand Agar mit Zusatz von 8 % Eigelb, 1 M NaCI, 5 mM CaC12) aufgetropft. • Die so beimpfte Platte wurde 3 Tage bei 37 ° C bebrütet.
Die Auswertung erfolgte derart, daß • 1. der Durchmesser (mm) der Candida albicans-Kolonie (behandelt und unbehandelt) sowie • 2. der Gesamtdurchmesser von Kolonie und Trübungshof, welcher durch Exoenzyme verursacht wurde (behandelt und unbehandelt) bestimmt wurde.
Aus der Bestimmung des Quotienten von Präparate- und Kontrollgruppe ergab sich ein Wert, der als Maß für die Enzymaktivität anzusehen war.

[2] = tested on: Candida albicans; test: Minimal inhibitory concentration (MHK) in vitro; assay type: cell-based; settings: read-out: MHK von Candida albicans
Description: Außerdem wird deutlich, daß zur Erreichung einer ausgeprägten Hemmwirkung der Phospholipase-Aktivität Dosen ausreichen, die deutlich unterhalb derjenigen liegen, die zur Hemmung des Pilzwachstums in vitro nötig sind und welche bisher für eine reine antimykotische Therapie als unbedingt erforderlich erachtet wurden (sihe MHK-Werte von Candida albicans einiger ausgewählter Derivate).

SMILES | % Hemmung der Phospholipase ([1]; Konzentration 10 µg/ml) | MIC [2] | % Hemmung der Phospholipase ([1]; Konzentration 50 µg/ml) | other results
CCN(CC(Cn1ccnc1)OCC=C(C)CCC=C(C)C)c1ccc(Cl)cc1 (stereo not drawn) [1.1] | 100% | > 125 µg/mL | – | % Hemmung der Phospholipase ([1]; Konzentration 1 µg/ml): 15%; % Hemmung der Phospholipase ([1]; Konzentration 5 µg/ml): 60%
CCN(CC(Cn1ccnc1)OCc1ccc(Cl)cc1)c1ccc(Cl)cc1 (stereo not drawn) [1.2] | – | – | 90% | –
CC(C)N(CC(Cn1ccnc1)OCc1ccc(Cl)cc1)c1ccc(Cl)c(Cl)c1 (stereo not drawn) [1.3] | 25% | 125 µg/mL (≈ 276 µM) | 100% | –
Clc1ccc(COC(CN2CCN(c3ccc(Cl)cc3)CC2)Cn2ccnc2)cc1 (stereo not drawn) [1.4] | – | – | 100% | –
OC(CN(Cc1ccc(Cl)cc1)c1ccc(Cl)cc1)Cn1ccnc1 (stereo not drawn) [1.5] | – | – | 100% | –
COC(CN(Cc1ccc(Cl)cc1)c1ccc(Cl)cc1)Cn1ccnc1 (stereo not drawn) [1.6] | – | – | 100% | –
OC(CN(Cc1ccc(Cl)cc1)Cc1ccc(Cl)cc1)Cn1ccnc1 (stereo not drawn) [1.8] | – | – | 100% | –
Clc1ccc(OCC(Cn2ccnc2)N2CCN(c3ccccc3)CC2)cc1 (stereo not drawn) [1.9] | – | – | 100% | –
Clc1ccc(SC(COc2ccc(Cl)cc2Cl)Cn2ccnc2)cc1 (stereo not drawn) [1.10] | – | – | 50% | –
Clc1ccc(N2CCN(C(COc3ccc(Cl)cc3Cl)Cn3ccnc3)CC2)cc1 (stereo not drawn) [1.11] | – | – | 100% | –
CN(CC(Cn1ccnc1)OCc1ccc(Cl)cc1Cl)c1ccc(Cl)cc1 (stereo not drawn) [1.12] | – | – | 100% | –
Clc1ccc(COC(CNc2ccc(Cl)cc2)Cn2ccnc2)cc1 (stereo not drawn) [1.13] | – | – | 26% | % Hemmung der Phospholipase ([1]; Konzentration 100 µg/ml): 33%
CCN(CC(Cn1ccnc1)OCc1ccc(Cl)cc1)c1ccc(Cl)c(Cl)c1 (stereo not drawn) [1.14] | – | – | 30% | % Hemmung der Phospholipase ([1]; Konzentration 100 µg/ml): 100%
CCN(CC(Cn1ccnc1)Sc1ccc(Cl)cc1)c1ccc(Cl)c(Cl)c1 (stereo not drawn) [1.15] | – | 125 µg/mL (≈ 284 µM) | 100% | –
CCN(CC(Cn1ccnc1)OCc1ccc(Cl)cc1Cl)c1ccc(Cl)c(Cl)c1 (stereo not drawn) [1.16] | – | 125 µg/mL (≈ 264 µM) | 100% | –
CCN(CC(Cn1ccnc1)OCc1ccc(Cl)cc1)c1cccc(C(F)(F)F)c1 (stereo not drawn) [1.17] | – | – | 12% | % Hemmung der Phospholipase ([1]; Konzentration 100 µg/ml): 38%
CCN(CC(Cn1ccnc1)OCc1ccc(Cl)cc1)c1ccc(Cl)cc1Cl (stereo not drawn) [1.18] | – | – | 60% | –
CCN(CC(Cn1ccnc1)SCc1ccc(Cl)cc1)c1cccc(C(F)(F)F)c1 (stereo not drawn) [1.19] | – | 125 µg/mL (≈ 275 µM) | 71,4% | –
Clc1ccc(N2CCN(C(COCc3ccc(Cl)cc3Cl)Cn3ccnc3)CC2)cc1 (stereo not drawn) [1.20] | – | – | 100% | –

SMILES | % Hemmung der Phospholipase ([1]; Konzentration 10 µg/ml) | MIC [2] | % Hemmung der Phospholipase ([1]; Konzentration 50 µg/ml) | other results
CCN(CC(Cn1ccnc1)OCc1cccc(Cl)c1)c1ccc(Cl)cc1 (stereo not drawn) [1.21] | 12,7% | 125 µg/mL (≈ 309 µM) | 50% | –
CCN(CC(Cn1ccnc1)OCc1ccc(Cl)cc1Cl)c1ccc(Cl)cc1 (stereo not drawn) [1.22] | 23,1% | 125 µg/mL (≈ 285 µM) | 100% | –
CC(=NOCC(Cn1ccnc1)OCc1ccc(Cl)cc1Cl)c1ccc(Cl)cc1 (stereo not drawn) [1.23] | 35,7% | – | 100% | –
CC(=NOCC(Cn1ccnc1)OCc1ccc(Cl)cc1)c1ccc(Cl)cc1 (stereo not drawn) [1.24] | 24,3% | – | 50% | –
CCN(CC(Cn1ccnc1)OCc1ccc(Cl)cc1)c1cccc(Cl)c1 (stereo not drawn) [1.25] | 27,3% | – | 60% | –
CC(=NOCC(Cn1ccnc1)Sc1ccc(Cl)cc1)c1ccc(Cl)cc1 (stereo not drawn) [1.26] | 50% | – | 90% | –
CCN(CC(Cn1ccnc1)OCc1ccc(Cl)cc1Cl)c1cccc(Cl)c1 (stereo not drawn) [1.28] | – | 125 µg/mL (≈ 285 µM) | 61,5% | % Hemmung der Phospholipase ([1]; Konzentration 100 µg/ml): 100%
CC(=NOCC(Cn1ccnc1)OCc1ccc(Cl)cc1)c1ccc(Cl)cc1Cl (stereo not drawn) [1.29] | 20,6% | – | 100% | –
Clc1ccc(CN2CCN(C(COc3ccc(Cl)cc3Cl)Cn3ccnc3)CC2)cc1 (stereo not drawn) [1.30] | – | – | 100% | –
Clc1ccc(OCC(Cn2ccnc2)N2CCN(Cc3ccc(Cl)cc3Cl)CC2)cc1 (stereo not drawn) [1.31] | – | – | 38,6% | % Hemmung der Phospholipase ([1]; Konzentration 100 µg/ml): 90%
CC(=NOCC(Cn1ccnc1)OCc1ccc(Cl)cc1Cl)c1ccc(Cl)cc1Cl (stereo not drawn) [1.32] | 18,2% | 125 µg/mL (≈ 257 µM) | 100% | –
CCCCN(CC(Cn1ccnc1)OCc1ccc(Cl)cc1)c1ccc(Cl)cc1 (stereo not drawn) [1.33] | 24% | 125 µg/mL (≈ 289 µM) | 80% | –
C=CCN(CC(Cn1ccnc1)OCc1ccc(Cl)cc1)c1ccc(Cl)cc1 (stereo not drawn) [1.34] | 10,7% | – | 100% | –
CCCCCCCCN(CC(Cn1ccnc1)OCc1ccc(Cl)cc1)c1ccc(Cl)cc1 (stereo not drawn) [1.35] | 45% | > 125 µg/mL | 100% | –
COC(CN(Cc1ccc(Cl)cc1Cl)c1ccc(Cl)cc1)Cn1ccnc1 (stereo not drawn) [1.37] | 16,7% | – | – | –
CCCCCCCCOC(CN(CC)c1ccc(Cl)cc1)Cn1ccnc1 (stereo not drawn) [1.40] | 75,0% | 125 µg/mL (≈ 319 µM) | 100% | –
CCN(CC(O)Cn1ccnc1)c1ccc(Cl)c(Cl)c1 (stereo not drawn) [1.41] | 33,3% | – | 100% | –
Clc1ccc(COC(CN2CCCc3ccccc32)Cn2ccnc2)c(Cl)c1 (stereo not drawn) [1.42] | – | – | 100% | –
Clc1ccc(COC(CN2CCCc3ccccc32)Cn2ccnc2)cc1 (stereo not drawn) [1.43] | 50% | – | 100% | –
